Where a SMILES comes first, the peptide text is derived from it. [ ]: non-standard residue; d: D form. Dip = N[C@H](C(=O)O)C(c1ccccc1)c1ccccc1; 2Nal = N[C@@H](Cc1ccc2ccccc2c1)C(=O)O; dGla = N[C@H](CC(C(=O)O)C(=O)O)C(=O)O; Cha = N[C@@H](CC1CCCCC1)C(=O)O
Columns and labels:
NS3 [1] = molecular target: T1, NS3 (Hepatitis C virus, UniProt A3EZJ3); experiment: Inhibitory activity against hepatitis C virus (HCV) NS3 protease (full-length); design: species or system Hepacivirus hominis
NS3 [2] = molecular target: T1, NS3; experiment: Inhibitory activity against hepatitis C virus (HCV) NS3 protease (isolated domain); design: species or system Hepacivirus hominis
NS3 (Hepatitis C virus) = NS3 (Hepatitis C virus) (UniProt A3EZJ3); experiment: Inhibitory activity against hepatitis C virus (HCV) NS3 protease (isolated domain) at a concentration of 6 uM; conditions: Hepacivirus hominis
NS3 (Hepatitis C virus), sequence (A3EZJ3 as listed by the source): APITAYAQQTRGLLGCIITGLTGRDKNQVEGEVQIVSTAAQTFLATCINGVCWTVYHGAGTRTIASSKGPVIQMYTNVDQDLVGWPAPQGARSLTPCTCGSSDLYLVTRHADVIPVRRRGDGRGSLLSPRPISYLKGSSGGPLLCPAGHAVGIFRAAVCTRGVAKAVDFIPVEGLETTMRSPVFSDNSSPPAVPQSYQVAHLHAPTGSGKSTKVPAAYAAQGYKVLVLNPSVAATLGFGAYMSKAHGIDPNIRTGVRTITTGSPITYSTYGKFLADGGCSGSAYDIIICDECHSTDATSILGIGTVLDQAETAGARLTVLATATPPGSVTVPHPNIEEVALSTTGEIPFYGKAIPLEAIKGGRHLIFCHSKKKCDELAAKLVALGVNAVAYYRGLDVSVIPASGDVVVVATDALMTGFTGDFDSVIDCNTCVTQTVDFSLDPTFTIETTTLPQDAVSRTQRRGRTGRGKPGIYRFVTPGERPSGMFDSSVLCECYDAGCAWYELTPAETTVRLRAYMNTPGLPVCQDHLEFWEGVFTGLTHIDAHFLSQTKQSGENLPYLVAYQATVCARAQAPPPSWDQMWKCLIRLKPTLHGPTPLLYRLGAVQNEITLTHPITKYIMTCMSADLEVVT

T1 sequence (A3EZJ3 whole entry, the tested form may be a part): as the sequence (A3EZJ3 as listed by the source) above

Compound: CC(C)C[C@H](NC(=O)[C@@H](CCC(=O)O)NC(=O)[C@@H](N)CC(=O)O)C(=O)N[C@@H](CCC(=O)O)C(=O)N[C@@H](CC1CCCCC1)C(=O)N[C@@H](CS)C(=O)O
- Ki (NS3 [1]): 1540 nM

Compound: CC(=O)N[C@@H](CC(=O)O)C(=O)N[C@@H](CCC(=O)O)C(=O)N[C@@H](CC(C)C)C(=O)N[C@@H](CCC(=O)O)C(=O)N[C@@H](CC1CCCCC1)C(=O)N[C@@H](CS)C(=O)O
- Ki (NS3 [1]): 490 nM
- Ki (NS3 [2]): 60 nM

Compound: CC(=O)N[C@@H](CC(=O)O)C(=O)N[C@H](CCC(=O)O)C(=O)N[C@@H](CC(C)C)C(=O)N[C@@H](CCC(=O)O)C(=O)N[C@@H](CC1CCCCC1)C(=O)N[C@@H](CS)C(=O)O
- Ki (NS3 [1]): 180 nM
- Ki (NS3 [2]): 23 nM

Compound: CSCC[C@H](NC(=O)[C@H](CCC(=O)O)NC(=O)[C@H](CC(=O)O)NC(C)=O)C(=O)N[C@@H](CCC(=O)O)C(=O)N[C@@H](Cc1ccc2ccccc2c1)C(=O)N[C@@H](CS)C(=O)O (Ac-DEME[2Nal]C-OH)
- Ki (NS3 [1]): 1040 nM
- Ki (NS3 [2]): 180 nM

Compound: CSCC[C@H](NC(=O)[C@H](CCC(=O)O)NC(=O)[C@H](CC(=O)O)NC(C)=O)C(=O)N[C@@H](CCC(=O)O)C(=O)N[C@@H](CC1CCCCC1)C(=O)N[C@@H](CS)C(=O)O (Ac-DEME[Cha]C-OH)
- Ki (NS3 [1]): 440 nM
- Ki (NS3 [2]): 400 nM

Compound: CC(=O)N[C@@H](CC(=O)O)C(=O)N[C@@H](CCC(=O)O)C(=O)N[C@H](C(=O)N[C@@H](CCC(=O)O)C(=O)N[C@@H](CC1CCCCC1)C(=O)N[C@@H](CS)C(=O)O)C(c1ccccc1)c1ccccc1 (Ac-DE[Dip]E[Cha]C-OH)
- Ki (NS3 [1]): 41 nM
- Ki (NS3 [2]): 25 nM

Compound: CC[C@H](C)[C@H](NC(=O)[C@@H](NC(=O)[C@H](CCC(=O)O)NC(=O)[C@H](CC(=O)O)NC(C)=O)C(c1ccccc1)c1ccccc1)C(=O)N[C@@H](CC1CCCCC1)C(=O)N[C@@H](CS)C(=O)O (Ac-DE[Dip]I[Cha]C-OH)
- Ki (NS3 [1]): 220 nM
- Ki (NS3 [2]): 30 nM

Compound: CC(=O)N[C@@H](CC(=O)O)C(=O)N[C@@H](CCC(=O)O)C(=O)N[C@H](C(=O)N[C@@H](CCCCN)C(=O)N[C@@H](CC1CCCCC1)C(=O)N[C@@H](CS)C(=O)O)C(c1ccccc1)c1ccccc1 (Ac-DE[Dip]K[Cha]C-OH)
- Ki (NS3 [1]): 1240 nM
- inhibition (NS3 (Hepatitis C virus)): 8%

Compound: CC[C@H](C)[C@H](NC(=O)[C@H](CC(C)C)NC(=O)[C@@H](CC(C(=O)O)C(=O)O)NC(=O)[C@H](CC(=O)O)NC(C)=O)C(=O)N[C@@H](CC1CCCCC1)C(=O)N[C@@H](CS)C(=O)O (Ac-D[dGla]LI[Cha]C-OH)
- Ki (NS3 [1]): 12 nM
- Ki (NS3 [2]): 0.75 nM

Compound: CC(=O)N[C@@H](CCC(=O)O)C(=O)N[C@H](C(=O)N[C@@H](CCC(=O)O)C(=O)N[C@@H](CC1CCCCC1)C(=O)N[C@@H](CS)C(=O)O)C(c1ccccc1)c1ccccc1 (Ac-E[Dip]E[Cha]C-OH)
- Ki (NS3 [1]): 330 nM
- Ki (NS3 [2]): 700 nM

Compound: CC[C@H](C)[C@H](NC(=O)[C@@H](NC(=O)[C@H](CCC(=O)O)NC(C)=O)C(c1ccccc1)c1ccccc1)C(=O)N[C@@H](CC1CCCCC1)C(=O)N[C@@H](CS)C(=O)O (Ac-E[Dip]I[Cha]C-OH)
- Ki (NS3 [1]): 1000 nM
- Ki (NS3 [2]): 1200 nM

Compound: CC(=O)N[C@@H](CCC(=O)O)C(=O)N[C@@H](CC1CCCCC1)C(=O)N[C@@H](CS)C(=O)O (Ac-Glu-[Cha]-Cys-OH)
- Ki (NS3 [1]): 4100 nM
- Ki (NS3 [2]): 230000 nM

Compound: CC[C@H](C)[C@H](NC(C)=O)C(=O)N[C@@H](CC1CCCCC1)C(=O)N[C@@H](CS)C(=O)O (Ac-Ile-[Cha]-Cys-OH)
- Ki (NS3 [1]): 25000 nM

Compound: CC(=O)N[C@H](C(=O)N[C@@H](CCC(=O)O)C(=O)N[C@@H](CC1CCCCC1)C(=O)N[C@@H](CS)C(=O)O)C(c1ccccc1)c1ccccc1 (Ac-[Dip]E[Cha]C-OH)
- Ki (NS3 [1]): 1100 nM
- Ki (NS3 [2]): 15000 nM

Compound: CC[C@H](C)[C@H](NC(=O)[C@@H](NC(C)=O)C(c1ccccc1)c1ccccc1)C(=O)N[C@@H](CC1CCCCC1)C(=O)N[C@@H](CS)C(=O)O (Ac-[Dip]I[Cha]C-OH)
- Ki (NS3 [1]): 2100 nM
- Ki (NS3 [2]): 50000 nM

Compound: Ac-DEMEEC-OH
- Ki (NS3 [1]): 360 nM
- Ki (NS3 [2]): 500 nM
